The values below come from ChEMBL document CHEMBL1151275, “An anthraquinone with potent quinone reductase-inducing activity and other constituents of the fruits of Morinda citrifolia (noni)” (J Nat Prod, 2005).

A short description of test [1]: Chemoprevention index, ratio of IC50 for mouse Hepa-1c1c7 cells to drug level required to double specific NADPH:quinone reductase activity in mouse Hepa-1c1c7 cells. The class given is functional.
Test [2] can be described thus: Cytotoxicity against mouse Hepa-1c1c7 cells after 48 hrs by crystal violet staining. The class given is cell-based. The following applies: Hepa-1c1c7, 48 h.

A value given as a limit tells only on which side of the number the result lay.

Regarding `COc1c(O)cc2c(c1O)C(=O)c1ccc(O)cc1C2=O`, the Ratio in test [1] was over 7770. The compound further returned an IC50 in test [2] of over 69.9 µM.

As to `COc1ccc(O)c2c1C(=O)c1ccc(CO)c(O)c1C2=O`, in test [1], the Ratio is recorded as over 39.9. Further, the IC50 in test [2] was over 66.6 µM.

`C[S@+]([O-])CCCCN=C=S` [L-SULFORAPHANE]: in test [1], the Ratio was 28.7. The same compound registered an IC50 in test [2] of 9.77 µM.

Broadly, the IC50 is the point on the concentration scale where inhibition reaches its midpoint. Read a low IC50 as greater potency.
